From ChEMBL document CHEMBL1125529, “NMDA antagonist activity of (+/-)-(2SR,4RS)-4-(1H-tetrazol-5-ylmethyl)piperidine-2-carboxylic acid resides with the (-)-2R,4S-isomer” (J Med Chem, 1992)

Assays:
Glutamate NMDA receptor [1] = assay: Compound was tested for the antagonistic activity against depolarizations due to NMDA using rat cortical slice preparation; type: functional
Glutamate NMDA receptor [2] = assay: Ability to inhibit [3H]-CGS- 19755 binding to NMDA receptor; type: protein-complex assay

In the case of O=C(O)[C@H]1C[C@@H](Cc2nnn[nH]2)CCN1 (racemic), the IC50 (Glutamate NMDA receptor [1]) is reported as 4200 nM and the IC50 (Glutamate NMDA receptor [2]) is reported as 107 nM.
Work on O=C(O)[C@H]1C[C@@H](Cc2nnn[nH]2)CCN1 (stereo in doubt) yielded an IC50 (Glutamate NMDA receptor [1]) of 1900 nM and an IC50 (Glutamate NMDA receptor [2]) of 67 nM.
In the case of O=C(O)[C@H]1C[C@@H](Cc2nnn[nH]2)CCN1 (stereo in doubt; (+)-1), the IC50 (Glutamate NMDA receptor [1]) is reported as 39100 nM and the IC50 (Glutamate NMDA receptor [2]) is reported as 2390 nM.
